Experimental findings from ChEMBL document CHEMBL1201862, “PubChem BioAssay data set” (2004) are described below.

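How tested: cells in 96-well plates exposed to compound for 48 hours at five concentrations. GI50 is the concentration that inhibits growth by half.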 Calls of active or inactive are those of the source. Rule as the data show it: active = GI50 up to about 1.1 µM and inactive = higher.

Common to all, as to assay: NCI-60 cell line screen, 48 h
Assay [1] concerns RPMI-8226.
Assay [2] has as its system KM12.
Assay [3] relates to HL-60.
Assay [4] has as its system TK-10.
In assay [5] the test system is 786-0.
The subject of assay [6] is IGROV-1.
The test system of assay [7] is HCC 2998.
Assay [8] concerns UACC-257.
For assay [9], the system named is NCI-H460.
For assay [10], the system named is HCT-116.
In assay [11] the test system is RXF 393.
The test system of assay [12] is U-251.
Assay [13] relates to SN12C.
Assay [14] deals with OVCAR-4.
The test system of assay [15] is HOP-62.
The test system of assay [16] is SF-295.
Assay [17] has as its system LOX IMVI.
In assay [18] the test system is Malme-3M.
For assay [19], the system named is UO-31.

For the compound `C=C1C(=O)O[C@@H]2/C=C(/C)[C@@H](OC(C)=O)C/C=C(\C)C(O)[C@@H](OC(=O)/C(C)=C\C)C12` (stereo partly drawn), the GI50 is 21.6 µM (inactive) in [1]; 68.7 µM (inactive) in assay [2]; 14.8 µM (inactive) in [3]; 68.7 µM (inactive) in [4]; 15.1 µM (inactive) in [5]; 50.7 µM (inactive) in [6]. Further, the GI50 in assay [7] was 24.6 µM (inactive); in [8] it was 37.2 µM (inactive); in assay [9], 39 µM (inactive); in assay [10], 16.3 µM (inactive); in assay [11], 26.8 µM (inactive); in [12], 41.1 µM (inactive). Also, the GI50 in assay [13] is 21 µM (inactive); in [14], 41.6 µM (inactive); in assay [15] it was > 100 µM (inactive); in [16] it was > 100 µM (inactive); in [17], 14.6 µM (inactive).
Regarding `O=C1c2ccncc2C(=O)c2c(O)ccc(O)c21`, the GI50 is 5.16 µM (inactive) in assay [1]; 6.07 µM (inactive) in assay [2]; 2.22 µM (inactive) in assay [3]; 27.5 µM (inactive) in assay [4]; 6.38 µM (inactive) in assay [5]; 12.5 µM (inactive) in assay [6]. Also, the GI50 is 1.69 µM (inactive) in [18]; 16.2 µM (inactive) in assay [19]; 4.92 µM (inactive) in assay [7]; 11.4 µM (inactive) in assay [9]; 2.91 µM (inactive) in assay [10]; 4.35 µM (inactive) in assay [11]. Further, the GI50 is 16 µM (inactive) in assay [12]; 4.73 µM (inactive) in assay [13]; 11.1 µM (inactive) in assay [14]; 32.2 µM (inactive) in assay [15]; 12.6 µM (inactive) in assay [16]; 4.25 µM (inactive) in assay [17].
As to `C1CSCCSCCCS[C@@H]2CCCCC2SC1` (stereo partly drawn), the GI50 in assay [1] was 21 µM (inactive); in assay [2] it was > 100 µM (inactive); in [3], 44.3 µM (inactive); in [4], > 100 µM (inactive); in [5], > 100 µM (inactive); in assay [6] it was > 100 µM (inactive). Moreover, the GI50 in assay [18] is > 100 µM (inactive); in assay [19] it was > 100 µM (inactive); in assay [7] it was > 100 µM (inactive); in assay [8] it was > 100 µM (inactive); in assay [9], 44.1 µM (inactive); in assay [10], > 100 µM (inactive). Moreover, the GI50 in assay [11] was > 100 µM (inactive); in [12], > 100 µM (inactive); in assay [13] it was 72.4 µM (inactive); in [14] it was > 100 µM (inactive); in assay [15], > 100 µM (inactive); in assay [16], > 100 µM (inactive). In addition, the GI50 in [17] was 24.2 µM (inactive).
Consider `O=C(NCCCN1CCN(CCCNC(=O)c2cnc3ccccc3n2)CC1)c1cnc2ccccc2n1`, for which the GI50 in assay [1], in assay [2], in assay [3], in assay [5], in [6] and in [18] was > 100 µM (inactive) in each case. Moreover, the GI50 was > 100 µM (inactive) in [19]; > 100 µM (inactive) in assay [7]; > 100 µM (inactive) in assay [8]; > 100 µM (inactive) in [9]; 44.8 µM (inactive) in assay [10]; > 100 µM (inactive) in [11]. Also, the GI50 in [12] is > 100 µM (inactive); in assay [13], > 100 µM (inactive); in assay [14], > 100 µM (inactive); in assay [15], > 100 µM (inactive); in [16], > 100 µM (inactive); in [17], 76.6 µM (inactive).
Consider `O=C1O[C@@H](c2ccccc2)C[C@@H]1CN1CCOCC1`, for which the GI50 in [1] was 59.4 µM (inactive); in assay [2] it was > 100 µM (inactive); in assay [3] it was > 100 µM (inactive); in assay [4], > 100 µM (inactive); in [5] it was > 100 µM (inactive); in [6], > 100 µM (inactive). For the same compound, the GI50 in [18], in [19], in assay [7], in [8], in assay [9] and in assay [11] was > 100 µM (inactive) each time. Further, the GI50 in [12], in assay [13], in assay [14], in assay [15], in assay [16] and in assay [17] was > 100 µM (inactive) each time.
`COc1cc(NS(C)(=O)=O)ccc1NCc1c2ccccc2nc2ccccc12`: the GI50 in assay [1] was 22.5 µM (inactive); in assay [2], 7.66 µM (inactive); in [3], 13.5 µM (inactive); in assay [4], > 100 µM (inactive); in assay [5], 40.6 µM (inactive); in assay [6] it was 29.4 µM (inactive). The GI50 in assay [18] was 31.5 µM (inactive); in assay [19] it was 19.1 µM (inactive); in [7], 40.6 µM (inactive); in assay [8] it was 32.9 µM (inactive); in assay [9] it was 34.5 µM (inactive); in [10], 3.45 µM (inactive). Besides, the GI50 in assay [11] is 13.9 µM (inactive); in [12], 76.6 µM (inactive); in [13] it was 28.3 µM (inactive); in assay [14], 0.0571 µM (active); in assay [16], 64 µM (inactive); in [17] it was 23.2 µM (inactive).
As to `O=C1N/C(=C\[N+](=O)[O-])c2ccccc21`, the GI50 in assay [1], in assay [2], in assay [3], in assay [4], in assay [5] and in assay [6] was > 100 µM (inactive) throughout. In addition, the GI50 in assay [18], in assay [19], in [7], in assay [8], in assay [9] and in [10] was > 100 µM (inactive) in each case. Further, the GI50 in assay [11], in [12], in assay [13], in [14], in assay [15] and in assay [16] was > 100 µM (inactive) throughout. Further, in assay [17], the GI50 was > 100 µM (inactive).
`O=[N+]([O-])CCc1cccc([N+](=O)[O-])c1`: the GI50 in assay [1], in [2], in assay [3], in [4], in [5] and in assay [6] was > 100 µM (inactive) each time. Besides, the GI50 in assay [18], in [19], in [7], in assay [8], in assay [9] and in [10] was > 100 µM (inactive) in each case. For the same compound, the GI50 in [11], in [12], in assay [13], in [14], in assay [15] and in assay [16] was > 100 µM (inactive) in each case. Besides, the GI50 in assay [17] was > 100 µM (inactive).
On to `COc1cc2cc3c4c(cc(OC)c(OC)c4c2cc1OC)CCN3C(=O)CCC(=O)NCCCN(C)C`, for which the GI50 in [1] is 38.5 µM (inactive); in [2], 67.1 µM (inactive); in [3] it was 21.7 µM (inactive); in [4], > 100 µM (inactive); in assay [5] it was 78 µM (inactive); in assay [6], > 100 µM (inactive). Further, the GI50 is 64.7 µM (inactive) in assay [18]; > 100 µM (inactive) in assay [19]; > 100 µM (inactive) in assay [7]; > 100 µM (inactive) in assay [8]; 33.1 µM (inactive) in assay [9]; 43.1 µM (inactive) in assay [10]. Further, the GI50 in assay [11] was > 100 µM (inactive); in [12], 41.9 µM (inactive); in assay [13] it was > 100 µM (inactive); in assay [14] it was > 100 µM (inactive); in assay [15], 50.7 µM (inactive); in [16] it was 37 µM (inactive). In addition, the GI50 in [17] was 14.3 µM (inactive).
`C#CCNC(=O)NC(CCCNC(=O)OCc1ccccc1)C(=O)OCc1ccccc1` (stereo not drawn): the GI50 was > 100 µM (inactive) in [1]; > 100 µM (inactive) in assay [2]; 25.4 µM (inactive) in assay [3]; > 100 µM (inactive) in assay [4]; > 100 µM (inactive) in assay [5]; > 100 µM (inactive) in assay [6]. Moreover, the GI50 in assay [18] was 51.9 µM (inactive); in assay [19] it was > 100 µM (inactive); in assay [7], > 100 µM (inactive); in [8] it was 27.9 µM (inactive); in assay [9], 46.2 µM (inactive); in [10], > 100 µM (inactive). The GI50 is 30.1 µM (inactive) in assay [11]; > 100 µM (inactive) in assay [12]; > 100 µM (inactive) in [13]; > 100 µM (inactive) in assay [14]; > 100 µM (inactive) in assay [15]; > 100 µM (inactive) in assay [16]. The GI50 in assay [17] was 95.1 µM (inactive).
On to `CC1CCC2(C)C(CC=C(C=O)C2(O)C=O)C12CO2` (stereo not drawn), for which the GI50 in assay [1] is 2.15 µM (inactive); in [2], 3.21 µM (inactive); in assay [3] it was 0.877 µM (active); in assay [4], 1.97 µM (inactive); in assay [5], 2.4 µM (inactive); in assay [6] it was 2.32 µM (inactive). Also, the GI50 in assay [18] was 2.64 µM (inactive); in [19], 1.81 µM (inactive); in assay [7], 2.29 µM (inactive); in assay [8], 1.52 µM (inactive); in assay [9], 2.57 µM (inactive); in [10], 1.49 µM (inactive). For the same compound, the GI50 in assay [11] is 1.48 µM (inactive); in assay [12], 2.81 µM (inactive); in assay [13] it was 2.6 µM (inactive); in [14], 2.23 µM (inactive); in assay [15], 20.9 µM (inactive); in assay [16] it was 3.31 µM (inactive). For the same compound, in assay [17], the GI50 was 2.69 µM (inactive).
